Laboratory results taken from US11302422B2, “Methods and systems for identifying a drug mechanism of action using network dysregulation” (THE TRUSTEES OF COLUMBIA UNIVERSITY IN THE CITY OF NEW YORK, priority 2014, dated 2022).
Entries after “also recorded” stand apart in the source; their conditions may differ.

Experiments:
OCI-LY3 cells = experiment: Mitomycin C dose-response with JAK2 inhibitor TG101348 (CellTiter-Glo); format: cell-based, human; conditions: mitomycin C with TG101348 at 0.2, 0.4, 0.6 uM, 48 hrs
Method: The JAK2-selective inhibitor TG101348 and Mitomycin C was purchased from Selleckchem and Tocris Bioscience respectively and were and dissolved in DMSO. OCI-LY3 cells were treated with the indicated compounds in 96-well plates and there growth was determined using the CellTiter-Glo Luminescent Cell Viability Assay (Promega Corp). Typically, 30,000 OCI-Ly3 cells per well in 200 μL of growth medium were grown for 48 hrs in the presence or absence (DMSO alone) of the desired compounds, and then assayed with CellTiter Glo according to manufacturer's instructions.

U-2-OS cells [1] = experiment: Microtubule network visualised with anti-tubulin antibody; format: cell-based; conditions: vincristine 4 nM for 24 hrs, compared to DMSO / non-specific siRNA
Method: Cells were grown on coverslips to ˜50% confluency and treated with compounds for 24 hrs. Cells were fixed with 3.7% formaldehyde solution in PBS for 15-30 minutes followed by washing with PBS 5 times. Cell membrane was permeabilized with 0.2% Triton-X in PBS for 10 minutes and rinsed once with TBS (10 mM Tris [pH 7.5], 150 mM NaCl). The permeabilized sample was blocked with 10% goat serum in TTBS (0.1% Tween-20 in TBS) for 30-60 minutes and washed once with TTBS. The microtubule network was probed with anti-tubulin antibody (Santa Cruz cat #sc-32293) in 1% goat serum in TTBS for 30-60 minutes at room temperature followed by washing in TTBS for 10 minutes. Alexa Fluor anti-mouse antibody (Invitrogen, cat #A-11005) was used as the secondary antibody to visualize the microtubule network using the 60× lens of a confocal microscope.

U-2-OS cells [2] = experiment: Vincristine dose-response (alamar Blue growth inhibition) after siRNA-mediated gene silencing; format: cell-based
Method: Small interfering RNA (siRNA) targeting each specified gene and siControl SMARTpools were obtained from Dharmacon Technologies (see Table 3). Reverse transfection was performed by preparing a solution of 1 mL of Opti-MEM (Invitrogen), […], of Lipofectamine-RNAiMAX reagent (Invitrogen) and 1.25 μL of 10 μM RNAi solution (final working concentration is […]), and incubating the mixture (1 mL/well) in a 6-well dish for 20 minutes at 37° C. U-2-OS cells were detached from culture flask, and re-suspended in 2× serum-containing media at a density of 4×10^5 cells/mL. One mL of cell suspension was transferred to each well containing the transfection mixture, and the 6-well plate was returned to culture incubator. After 48 hrs, cells were detached and reverse transfected again using the same procedures. After 48 hrs, cells were trypsinized and reseeded into 384-well format to determine sensitivity against vincristine. […] Plates were incubated further for 16 hrs to allow reduction of alamar Blue, which results in the generation of red fluorescence. The fluorescence intensity was determined using a Victor 3 plate reader (Perkin Elmer, Inc.), and used to calculated percent growth inhibition.

GPX4 = molecular target: T1, GPX4 (Homo sapiens, UniProt P36969); experiment: LC-MS based GPX4 assay (PC-OOH reduction) in lysates of treated cells; format: cell-based; conditions: lysates of altretamine treated U-2932 cells versus untreated lysate
T1 construct: endogenous in cells; host or cells: U-2932 cells (cleared whole-cell lysate)
T1 sequence (P36969 1-197): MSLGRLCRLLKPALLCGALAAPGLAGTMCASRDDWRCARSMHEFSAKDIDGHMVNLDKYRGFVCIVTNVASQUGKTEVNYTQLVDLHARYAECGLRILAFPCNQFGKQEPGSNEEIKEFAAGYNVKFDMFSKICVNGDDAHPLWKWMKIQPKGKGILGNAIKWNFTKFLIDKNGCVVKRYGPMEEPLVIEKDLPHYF
Method: GPX4 enzymatic activity assay was performed as follows. Briefly, 1×10^6 cells were re-suspended in the cell lysis buffer. Sonication was used to make cell lysates followed by centrifugation at 14,000 rpm for 10 minutes. Protein concentration of the cleared cell lysates was determined using a Bradford protein assay (Bio-Rad). Two hundred micrograms of cellular proteins was mixed with phosphatidyl choline hydroperoxide (PC—OOH), the GPX4 specific substrate, and reduced glutathione, a GPX4 cofactor. The mixture was incubated at 37° C. for 30 minutes followed by lipid extraction using a chloroform:methanol (2:1) solution. The lipid extract was evaporated using a rotary evaporator, and re-dissolved in 100% ethanol before injecting into LC-MS instrument for PC-OOH quantitation.

U-2932 cells [3] = experiment: Lipid ROS by C11-BODIPY staining and flow cytometry; format: cell-based; conditions: BODIPY-C11, versus DMSO
Method: U-2932 cells (2×10^5) were seeded in 6-well plates and incubated at 37° C. for 16 hrs. Cells were treated with test compounds for the indicated time, then harvested, pelleted and washed once with PBS. For lipid ROS detections, cells were re-suspended with Hanks Balanced Salt Solution (HBSS, Life Technologies) containing C11-BODIPY (581/591) (2 μM) (Life Technologies) and incubated for 10 minutes at 37° C. Cells were then pelleted, re-suspended in 500 μL HBSS, strained through […] cell strainer (BD Falcon), and analyzed using BD Accuri C6 flow cytometer (BD Biosciences). C11-BODIPY signal was measured using FL1 channel. Experiments were done in biological triplicates, and a representative result was shown.

U-2932 cells [4] = experiment: Glutathione (GSH) level in treated cells; format: cell-based; conditions: 1 mM, 24 hrs, versus DMSO
Method: U-2932 cells were seeded in 10 cm dish (2×10^6/dish) and grown at 37° C. for 16 hrs. Cells were treated with vehicle (0.4% DMSO), 1 mM sulfasalazine (24 hr IC50) or 1 mM altretamine (double the 24 hr IC50), and incubated for 24 hrs. Cells were then harvested, pelleted, washed once with 400 μl ice-cold PBS containing 1 mM EDTA and sonicated. After the debris was pelleted and removed, both oxidized and reduced glutathione in 120 μL of sample was quantified in technical triplicate using QuantiChrome glutathione assay kit (BioAssay Sytems). The glutathione quantity was normalized to protein concentration measured with Bradford assay (Bio-Rad).

U-2932 cells [5] = experiment: Cell viability, 24 hr IC50; format: cell-based; conditions: Homo sapiens, U2932
Method: Compounds were selected based on their activity in a primary screen of FDA-approved, late-stage experimental, and tool compounds. OCI-LY3, OCI-LY7 and U-2932 cells were seeded in white, tissue culture-treated 96-well plates at a density of 5×10^4 cells per well in 100 μL total volume using the Janus automated liquid handling system (Perkin Elmer Inc.). After 12 hrs of incubation at 37° C. the plates were allowed to cool to room temperature prior to compound addition via the Janus. Compounds were transferred as 1 μL of DMSO stock solutions into the assay plates (plate based triplication), which were subsequently placed on an orbital shaker for 5 minutes and then placed back in the incubator. […] Plates were shaken 5 minutes on an orbital shaker before data acquisition in an Envision (PerkinElmer Inc.) (0.5 second read time, enhanced luminescence). IC20 values were determined using IDBS Activity Base utilizing a four parameter fit model.
U-2932 cells were seeded in 10 cm dish (2×10^6/dish) and grown at 37° C. for 16 hrs. […] After the debris was pelleted and removed, both oxidized and reduced glutathione in 120 μL of sample was quantified in technical triplicate using QuantiChrome glutathione assay kit (BioAssay Sytems). The glutathione quantity was normalized to protein concentration measured with Bradford assay (Bio-Rad).

## Cc1cnc(Nc2ccc(OCCN3CCCC3)cc2)nc1Nc1cccc(S(=O)(=O)NC(C)(C)C)c1 [TG101348]
OCI-LY3 cells
  effect of JAK2 inhibition on mitomycin C activity (percent cell inhibition): significant, dose-dependent antagonism

## CC[C@]1(O)C[C@H]2CN(CCc3c([nH]c4ccccc34)[C@@](C(=O)OC)(c3cc4c(cc3OC)N(C=O)[C@H]3[C@@](O)(C(=O)OC)[C@H](OC(C)=O)[C@]5(CC)C=CCN6CC[C@]43[C@@H]65)C2)C1 [vincristine]
U-2-OS cells [1]
  effect on microtubule network: significantly altered microtubule network
U-2-OS cells [2]; siRNA targeting CCNB1, 48 hrs vincristine
  change of vincristine sensitivity after CCNB1 silencing: reduces the cell sensitivity; also recorded: had the opposite effect
U-2-OS cells [2]; siRNA targeting RPS3A, 48 hrs vincristine
  change of vincristine sensitivity after RPS3A silencing: reduces the cell sensitivity; also recorded: had the opposite effect
U-2-OS cells [2]; siRNA targeting VHL, 48 hrs vincristine
  change of vincristine sensitivity after VHL silencing: increases the sensitivity two-folds; also recorded: more than two-fold

## CN(C)c1nc(N(C)C)nc(N(C)C)n1 [altretamine]
GPX4
  GPX4 activity (residual PC-OOH signal): decreases the activity of GPX4; also recorded: displayed a significant [PC—OOH+H^+] signal
U-2932 cells [3]
  lipid-ROS levels: significantly increases the levels of lipid-ROS; also recorded: induce lipid-ROS accumulation
U-2932 cells [4]
  GSH levels: indistinguishable from the control; also recorded: did not deplete GSH levels

## CO[C@@]12[C@H](COC(N)=O)C3=C(C(=O)C(C)=C(N)C3=O)N1C[C@@H]1N[C@@H]12 [mitomycin C]
OCI-LY3 cells
  effect of JAK2 inhibition on mitomycin C activity (percent cell inhibition): reduction in the sensitivity of the cells; also recorded: significant, dose-dependent antagonism

## O=C(O)c1cc(/N=N/c2ccc(S(=O)(=O)Nc3ccccn3)cc2)ccc1O [sulfasalazine]
U-2932 cells [5]
  IC50: 1 mM
U-2932 cells [3]
  lipid-ROS levels: significantly increases the levels of lipid-ROS; also recorded: induce lipid-ROS accumulation
U-2932 cells [4]
  GSH levels: reduces the levels of active GSH compared to control
U-2932 cells [4]; listed as Sulfasalazine
  GSH levels: depletion of GSH levels
